The subject of one data set is TIM3. The data set is described as follows: gNA validation: frameshift (ORF disruption) frequency, TIM3. In kind it is cell-based, human. As to conditions: Jurkat, CRISPResso2 ORF analysis. The protocol: Initial quality assessment of the obtained reads was performed with FastQC36. The sequencing data were aligned and analyzed with the CRISPResso2 software, using CRISPRessoBatch command with the parameters—cleavage_offset 1—quantification_window_size 10—quantification_window_center 1—expand_ambiguous_alignments for the INDEL frequency analysis. For the ORF disruption analysis, CRISPRessoBatch command with the parameters—cleavage_offset 1—coding_seq <EXON_SEQ>—quantification_window_size 0—quantification_window_center 1—expand_ambiguous_alignments was used. Modification rates from the CRISPResso2 software output were analyzed in Excel.
(§1) High-efficiency gNAs identified in our initial analysis were validated by assaying INDEL frequency for the top three or five gNAs for each of the selected immunologically relevant genes (FIG. 15). […] Alternating grey and white zones on the plot represent groups of three to five high-efficiency gNAs per locus. […] Using the CRISPresso2 software, the degree of open reading frame (ORF) disruption for each of the validated gNAs was estimated (FIG. 15). In addition, for four high-efficiency gNAs targeting three different exons at the PDCD1 locus, surface expression of the PDCD1 protein was measured by flow cytometry 4, 7, and 11 days post-transfection (data not shown).
Average fraction of INDELs leading to frameshifts (dashed line) is approx. 66%. […]

In a further data set the test system is PDCD1 protein. The data set is described as follows: Surface expression of the PDCD1 protein by flow cytometry in Jurkat cells. In kind it is cell-based, human. As to conditions: flow cytometry 4, 7 and 11 days post-transfection, crPDCD1_2 value at day 4, same at day 11. The protocol: For detection of PDCD1 knock-out efficiency, approx. 250,000 Jurkat cells per sample were transferred onto 96-well V-bottom cell culture plates and assessed following a series of consecutive washing and staining steps. The first step included centrifuging the cells at 300 g for 5 minutes at 4° C., and discarding the supernatant. Afterwards, the cells were stained using 100 μL Cell Staining Buffer (Biolegend) with APC/Cyanine7 anti-human CD279 (PD-1) antibody (1:100: Biolegend) and incubated for 30 minutes at 4° C., in the dark. The cells were then centrifuged at 300 g for 5 minutes at 4° C., and the supernatant discarded. The next step included two repeats of centrifugation at 300 g for 5 minutes at 4° C., supernatant removal, and cell washing in 150 μL ice-cold Cell Staining Buffer (Biolegend). In the final step, the cells were re-suspended in 100 μL Cell Staining Buffer for the flow cytometry measurements (excitation: red laser; emission: […]).
as §1

The next data set relates to TRBC1 and TRBC2. Nature of the data set: On-target Amplicon-NGS in Pan T-cells, TRBC. The class given is cell-based, human. The text has this: (§2) T-cells were isolated […] buffy coats and nucleofected after two days. The buffy coats were procured from the Rigshospitalet in Copenhagen, Denmark. The Pan-T cells were enriched by negative selection using an Easy Sep Human T-cell Isolation Kit from StemCell Technologies. The RNPs were formed by mixing gRNAs with Art-Mad7mam+ prior to nucleofection with Jurkat or T-cells. In some cases, synthetic ssODNs (Table 11) with a length of 200 nt were included in the transfections to evaluate impact on frame shift mutation rates by HDR rather than relying on NHEJ alone in an effort to maximize functional disruption. The ssODNs were designed to comprise a deletion of the spacer and PAM sequence thereby resulting in a programmed frame shift. After transfection, the cells were cultivated and assayed for the different readouts. The nucleofection with dual gRNAs followed a similar protocol, but with minor differences in pre-assembling of the gRNAs. Briefly, the two dual RNAs (modulator and targeter) are combined in a molecular ratio of 1:1 (400 μM Modulator
(§3) At the genome level, Amplicon-NGS was used to determine the type and mutation frequency at the on-target site. The Amplicon-NGS assay is based on the amplification of the on-target site using specific primer pairs. The primers are designed to have the predicted cutting site at the center and a length of 180-280 nt. The amplicons are indexed for NGS and sequenced on an Illumina MiSeq system. The analysis was performed using the Crispresso script. Crispresso requires the input of a configuration file comprised of the specific gRNA sequence, primer sequences and the theoretical amplicon that is based on the alignment of the primer pair to the reference human genome GRCh38. In addition, for HDR analysis associated with ssODN-programmable editing a reference sequence with the specific mutations can be input into the configuration file. Crispresso aligns the sequencing reads to the reference amplicon and analyzes the mutation type and frequency −/+10 nt at the putative cut site of Art-Mad7mam+ based on the provided gRNA sequence. As output, Crispresso delivers different mutation types and their frequencies: Substitutions, INDELs, HDR Unmodified, HDR INDELs, HDR+substitutions.
(§4) To further test the effects of ssODNs, single and dual gRNAs were mixed with Art-MAD7mam+ nuclease, and in some cases included a ssODN designed to create a programmed disruption in the target gene. The freshly isolated Pan-T cells were activated and cultured for 2 days, and RNPs−/+ssODNs were transfected using the Lonza 96-well plate shuttle. […]

Data set [1] deals with CSF2. The data set is described as follows: On-target Amplicon-NGS in Pan T-cells, CSF2. In kind it is cell-based, human.
Description: as §2, §3, §4

The test system of data set [2] is CSF2. The data set is described as follows: Functional KO in Pan T-cells: intracellular CSF2 staining after PMA and Ionomycin. In kind it is cell-based, human. The protocol: Protein expression for targeted genes was measured by antibody staining against the target protein to quantify functional disruption of the target gene. The efficiency of functional disruption was verified by antibody staining and quantified as the negative cell population by flow cytometry. TRBC, CD3E and CD40LG are located at the cell surface and living cells were stained with the corresponding antibodies. Since CSF2 is a secreted protein, cells were first activated, secretion was blocked, cells were fixed with formaldehyde, and permeabilized before the staining procedure. Given CD40LG and CSF2 are expressed upon stimulation of primary T-cells, cells were activated first to enhance their expression. The induction of CD40LG and CSF2 was achieved using anti-CD3/CD28 and PMA/Ionomycin, respectively.
The best CSF2 gRNA was identified as gCSF2_007 in the Jurkat experiment. In Pan T-cells, the cutting efficiency was approximately 65% and 45% and could be increased by ssODN inclusion to ˜80 and 70% for the regular and STAR design, respectively (FIG. 33E). […] The cells were treated with PMA and Ionomycin to strongly activate the cells and blocked the secretion of the protein with Golgiplug and Golgistop and stained the cells after fixation and permeabilization for the intracellular accumulated CSF2 proteins.

In data set [3] the test system is CSF2. The data set is described as follows: Cutting efficiency by Amplicon-NGS in Jurkat cells, CSF2. In kind it is cell-based, human.
Description: as §2
At the genome level, Amplicon-NGS was used to determine the type and mutation frequency at the on-target site. The Amplicon-NGS assay is based on the amplification of the on-target site using specific primer pairs. […] Crispresso aligns the sequencing reads to the reference amplicon and analyzes the mutation type and frequency −/+10 nt at the putative cut site of Art-Mad7mam+ based on the provided gRNA sequence. […]
The cutting efficiency was calculated as the percentage of reads with any NHEJ modification (including insertions, deletions, and/or substitutions) of the total number of reads that were aligned to the reference amplicon. […]
The top gRNAs identified in the tiling experiments in, were further tested by performing additional nucleofections in Jurkat cells and measuring viability, INDEL formation by amplicon-NGS, and functional flow cytometry assays. […] For the Amplicon-NGS readout three days after transfection, genomic DNA was prepared, amplicons generated, and sequence analyzed. […]

The next data set deals with human genes. Nature of the data set: Editing efficiency of tested crRNAs / guide nucleic acids (Tables 7-10) detected in human cells. The class given is cell-based. As to conditions: for % Indel: tested crRNAs targeting human genes.

Consider “crTIM3_3: validated high-efficiency gNA, TIM3 (guide TAAGTAGTAGCAGCAGCAGCA; spacer only, further chemistry not given here)”, for which, in the data set on TIM3, the “frameshifts frequency (fraction of frameshift to INDEL)” value is on record as 44%.
“crPDCD1_4: high-efficiency gNA targeting the PDCD1 locus (guide CTAGCGGAATGGGCACCTCAT; spacer only, further chemistry not given here)”: the “surface expression of the PDCD1 protein” value in the data set with PDCD1 protein is 85%.
“crPDCD1_5: high-efficiency gNA targeting the PDCD1 locus (guide GTGCTAAACTGGTACCGCATG; spacer only, further chemistry not given here)”: in the data set with PDCD1 protein, the “surface expression of the PDCD1 protein” value is listed as 85%.
As for “gTRBC1_2_003: gRNA targeting both TRBC1 and TRBC2; dual form Targeter_TRBC1_2_003 UUGUAGAUAGCCAUCAGAAGCAGAGAUCU (dual-guide targeter with IDT AltR2 3' modification, chemistry undefined, further chemistry not given here)”, the “lower INDEL frequency, dual vs regular configuration” value in the data set with TRBC1 and TRBC2 was ~5%. The “perfect HDR rate” value in the data set with TRBC1 and TRBC2 (inclusion of ssODNs) is given as ~40%. The mutation rate with TRBC1 and TRBC2 (inclusion of ssODNs, all cases) is > 90%. Also, the “INDEL frequency at the on-target site” value in the data set with TRBC1 and TRBC2 (regular gRNA configuration) is given as ~90%.
On to “gCSF2_007: best CSF2 gRNA; dual form Targeter_CSF2_007 UUGUAGAUCACAGGAGCCGACCUGCCUAC (synthetic gRNA ordered from IDT, chemistry not given here)”, for which the cutting efficiency is recorded as ~45% in the data set with CSF2 [1] (STAR design); ~70% in the data set on CSF2 [1] (STAR design, ssODN inclusion); “approximately 65%” in the data set with CSF2 [1] (regular design); ~80% in the data set on CSF2 [1] (regular design, ssODN inclusion). Moreover, the “negative CSF2 cell population” value is listed as ~60% with CSF2 [2] (dual gRNA); ~80% with CSF2 [2] (dual gRNA with the ssODN); ~90% with CSF2 [2] (regular gRNA with the ssODN); ~75% with CSF2 [2] (regular gRNA, 70% of control cells CSF2 positive). Besides, in the data set on CSF2 [3] (CSF2 gRNAs, Jurkat cells, Amplicon-NGS), the “Average on-target editing efficiency” value is 31.1. In addition, the Total score in the data set on CSF2 [3] (CSF2 gRNAs, combines on-target editing efficiency and predicted off-target score) is 30.7. The “cutting efficiency (rank among the three CSF2 gRNAs)” value in the data set on CSF2 [3] (Jurkat verification) is given as “highest”.
Regarding “crPDCD1_3: high-efficiency gNA targeting the PDCD1 locus (guide CAGTGGCGAGAGAAGACCCCG; spacer only, further chemistry not given here)”, in the data set on PDCD1 protein, the “surface expression of the PDCD1 protein” value amounted to 35%.
Take “gTIGIT_14 (guide TGCATCTATCACACCTACCCT; chemistry not given here)”: in the data set with human genes (Target Gene TIGIT), the “% Indel” value stood at 1.4%.
Take “gLAG3_6: spacer targeting LAG3, SEQ ID NO 153, GGGTGCATACCTGTCTGGCTG (chemistry not given here)”: the “% Indel” value in the data set on human genes (Target Gene LAG3) came out at 52.4%.
On to “gTIGIT_6 (guide CTCTGCAGAAATGTTCCCCGT; chemistry not given here)”, for which the “% Indel” value in the data set with human genes (Target Gene TIGIT) turned out to be 0.1%.
“gTRBC1 + 2_1 (guide AGCCATCAGAAGCAGAGATCT; chemistry not given here)”: the “% Indel (TRBC1)” value in the data set on human genes (crRNA targeting TRBC1 + 2, value at TRBC1) is on record as 66.40%. The “% Indel (TRBC2)” value in the data set on human genes (crRNA targeting TRBC1 + 2, value at TRBC2) turned out to be 74.7%.
On to “gTIGIT_21 (guide CTAGTCAACGCGACCACCACG; chemistry not given here)”, for which the “% Indel” value in the data set with human genes (Target Gene TIGIT) worked out at 0.1%.
With “gTIGIT_29 (guide TGCCTGGACACAGCTTCCTGG; chemistry not given here)”, in the data set with human genes (Target Gene TIGIT), the “% Indel” value is 0.3%.
On to “gPTPN6_6: spacer targeting PTPN6, SEQ ID NO 249, TATGACCTGTATGGAGGGGAG (chemistry not given here)”, for which the “% Indel” value in the data set with human genes (Target Gene PTPN6) worked out at 83.4%.
“gTUBB_2 (guide ACCATGAGGGAAATCGTGCAC; chemistry not given here)”: in the data set on human genes (target gene as given (Table 10)), the “% Indel” value came to 68.4%.

The values are drawn from US20250179481A1, “COMPOSITIONS AND METHODS FOR TARGETING, EDITING, OR MODIFYING GENES” (Celyntra Therapeutics SA, priority 2021, published 2025).
